{"source": "paper PMC5924706", "about": "(ACS chemical neuroscience, 2017)", "key": {"GluN2C/2D over GluN2A/2B": {"test_system": "GluN2C/2D over GluN2A/2B", "conditions": "cited from earlier work"}, "[1]": {"test_system": "GluN2C-expressing cultured rat cortical neurons", "test": "Agonist-evoked NMDAR currents in transfected cultured cortical neurons", "conditions": "20 μM compound; NMDA and glycine pressure pulses"}, "[2]": {"test_system": "cultured rat cortical neurons transfected with GFP alone", "test": "Agonist-evoked NMDAR currents in transfected cultured cortical neurons", "conditions": "20 μM compound; NMDA and glycine pressure pulses"}, "GluN1/GluN2D receptors": {"molecular_target": "GluN1/GluN2D receptors (Rattus norvegicus, UniProt Q62645)", "sequence (Q62645 28-1323, other chains not shown)": "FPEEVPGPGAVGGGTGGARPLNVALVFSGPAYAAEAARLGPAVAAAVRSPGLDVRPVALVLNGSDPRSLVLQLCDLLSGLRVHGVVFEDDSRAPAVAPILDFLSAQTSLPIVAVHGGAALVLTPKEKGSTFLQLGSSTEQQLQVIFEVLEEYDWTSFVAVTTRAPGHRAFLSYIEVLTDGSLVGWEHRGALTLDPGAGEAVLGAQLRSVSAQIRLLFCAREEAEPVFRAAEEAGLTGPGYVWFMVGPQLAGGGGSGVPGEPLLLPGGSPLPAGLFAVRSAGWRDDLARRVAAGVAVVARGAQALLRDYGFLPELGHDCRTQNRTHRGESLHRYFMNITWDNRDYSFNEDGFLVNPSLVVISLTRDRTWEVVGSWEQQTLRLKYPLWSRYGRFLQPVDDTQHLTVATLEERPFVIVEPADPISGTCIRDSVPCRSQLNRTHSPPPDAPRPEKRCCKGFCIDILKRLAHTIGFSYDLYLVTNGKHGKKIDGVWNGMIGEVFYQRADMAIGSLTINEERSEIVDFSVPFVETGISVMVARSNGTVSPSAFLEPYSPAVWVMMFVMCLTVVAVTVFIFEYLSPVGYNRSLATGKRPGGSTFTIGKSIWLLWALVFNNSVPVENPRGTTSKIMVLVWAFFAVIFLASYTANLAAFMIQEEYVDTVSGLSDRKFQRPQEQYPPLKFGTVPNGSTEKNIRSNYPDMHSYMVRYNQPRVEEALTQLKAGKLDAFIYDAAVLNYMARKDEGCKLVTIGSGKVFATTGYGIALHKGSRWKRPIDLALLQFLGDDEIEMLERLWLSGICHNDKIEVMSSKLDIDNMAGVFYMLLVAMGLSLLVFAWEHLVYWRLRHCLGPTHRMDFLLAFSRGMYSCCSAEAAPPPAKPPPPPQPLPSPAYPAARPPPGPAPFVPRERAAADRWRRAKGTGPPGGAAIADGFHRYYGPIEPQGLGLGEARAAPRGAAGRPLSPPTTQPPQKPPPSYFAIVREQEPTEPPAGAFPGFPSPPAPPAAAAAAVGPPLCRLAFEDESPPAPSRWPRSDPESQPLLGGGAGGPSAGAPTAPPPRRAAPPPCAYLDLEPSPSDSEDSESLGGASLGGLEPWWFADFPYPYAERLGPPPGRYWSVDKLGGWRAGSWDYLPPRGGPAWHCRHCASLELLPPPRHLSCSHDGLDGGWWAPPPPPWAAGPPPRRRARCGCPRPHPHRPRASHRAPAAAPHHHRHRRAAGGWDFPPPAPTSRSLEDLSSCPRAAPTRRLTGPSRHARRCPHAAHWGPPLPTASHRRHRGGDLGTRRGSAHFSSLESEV", "conditions": "for agonist pEC50 at GluN1/GluN2D: mean (95% CI); for pEC50: read-out: agonist EC50 at GluN1/GluN2D"}}, "note": "pEC50: −log10 of the molar value. Where two headings read alike, the source gives them in different places.", "data": [{"molecule": "COc1ccc2nc(/C=C/c3cccc([N+](=O)[O-])c3)n(-c3ccc(C(=O)O)cc3)c(=O)c2c1", "note": "[QNZ46]", "values": [{"measurement": "selectivity for GluN2C/2D over GluN2A/2B", "setting": "GluN2C/2D over GluN2A/2B", "result": "up to 50 fold"}]}, {"molecule": "COc1ccc(OCC2c3cc(OC)c(OC)cc3CCN2C(=O)c2cccc(Cl)c2)cc1", "note": "(centres unmarked) [CIQ]", "values": [{"measurement": "agonist-evoked response, % of control, GluN2C-expressing neurons", "setting": "[1]", "result": "145 ± 5.9", "unit": "%"}, {"measurement": "agonist-evoked response, % of control, neurons transfected with GFP alone", "setting": "[2]", "result": "98 ± 1.8", "unit": "%"}]}, {"molecule": "Cc1ccc2[nH]c(=O)c(C3=NN(C(=O)CCC(=O)O)C(c4ccc(Br)cc4)C3)c(-c3ccccc3)c2c1", "note": "(centres unmarked) [DQP-1105]", "values": [{"measurement": "selectivity for GluN2C/2D over GluN2A/2B", "setting": "GluN2C/2D over GluN2A/2B", "result": "up to 50 fold"}]}, {"molecule": "N[C@@H](CCC(=O)O)C(=O)O", "note": "[glutamate]", "values": [{"measurement": "agonist pEC50 at GluN1/GluN2D", "setting": "GluN1/GluN2D receptors; absence of NAB-14", "result": "−6.22 (−6.29, −6.14)"}, {"measurement": "agonist pEC50 at GluN1/GluN2D", "setting": "GluN1/GluN2D receptors; presence of 3 μM NAB-14", "result": "−6.15 (−6.36, −5.93)"}, {"measurement": "pEC50", "setting": "GluN1/GluN2D receptors; absence of NAB-14", "result": 6.21}, {"measurement": "pEC50", "setting": "GluN1/GluN2D receptors; presence of 3 μM NAB-14", "result": 6.15}]}]}
